Assay results as given in ChEMBL document CHEMBL4043136, “Chiral-pool synthesis of 1,2,4-trisubstituted 1,4-diazepanes as novel σ1 receptor ligands” (Bioorg Med Chem, 2017).
Activity calls are given as the source filed them. The calls are words filed in the database; no cut-off is given here.

Columns and labels:
[1] = target: Neuromedin-B receptor (Homo sapiens) (UniProt P28336); experiment: Displacement of [125I]-(Tyr4)-bombesin from bombesin BB1 receptor (unknown origin) at 1 uM
[2] = target: Sigma non-opioid intracellular receptor 1 (Cavia porcellus, UniProt Q60492); experiment: Displacement of [3H]-pentazocine from sigma1 receptor in guinea pig brain membranes after 120 mins by liquid scintillation counting; format: cell membranes, Membrane
[3] = target: T1, Sigma intracellular receptor 2 (Rattus norvegicus, UniProt Q5U3Y7); experiment: Displacement of [3H]-DTG from sigma2 receptor in rat liver membranes after 120 mins by liquid scintillation counting; format: cell membranes, Membrane
T1 sequence (Q5U3Y7 whole entry): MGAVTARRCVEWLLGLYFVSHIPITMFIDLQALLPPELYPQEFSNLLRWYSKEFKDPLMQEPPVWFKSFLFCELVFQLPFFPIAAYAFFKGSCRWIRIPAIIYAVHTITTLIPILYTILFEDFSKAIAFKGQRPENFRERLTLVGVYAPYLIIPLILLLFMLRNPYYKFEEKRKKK

[4] = Displacement of [3H]-(+)-MK 801 from PCP binding site of NMDA receptor in pig brain cortex membranes after 120 mins by liquid scintillation spectrometry; format: cell membranes, Sus scrofa
[5] = Metabolic stability in rat microsomes assessed as amount of parent compound remaining after 5 mins; format: ADME, Microsome; conditions: read-out: Stability
CYP2C19 = CYP2C19 (Homo sapiens, UniProt P33261); experiment: Inhibition on CYP2C19 (unknown origin) at 1 uM; format: ADME
Albumin = Albumin (Homo sapiens, UniProt P02768); experiment: Binding affinity to human serum albumin at 60 uM; format: ADME; conditions: isolated protein
[6] = target: Alpha-1A adrenergic receptor (Homo sapiens) (UniProt P35348); experiment: Displacement of [3H]-prazosin from adrenergic alpha1A receptor (unknown origin) at 1 uM
[7] = target: Alpha-1B adrenergic receptor (Homo sapiens) (UniProt P35368); experiment: Displacement of [3H]-prazosin from adrenergic alpha1B receptor (unknown origin) at 1 uM
[8] = target: Beta-1 adrenergic receptor (Homo sapiens) (UniProt P08588); experiment: Displacement of [125I]-cyanopindolol from adrenergic beta1 receptor (unknown origin) at 1 uM
[9] = target: B1 bradykinin receptor (Homo sapiens) (UniProt P46663); experiment: Displacement of [3H]-(Des-Arg10)-Kallidin from bradykinin B1 receptor (unknown origin) at 1 uM
[10] = target: C-C chemokine receptor type 4 (Homo sapiens) (UniProt P51679); experiment: Displacement of [125I]-TARC from CCR4 receptor (unknown origin) at 1 uM
[11] = target: D(1A) dopamine receptor (Homo sapiens) (UniProt P21728); experiment: Displacement of [3H]-SCH-23390 from dopamine D1 receptor (unknown origin) at 1 uM
[12] = target: D(2) dopamine receptor (Homo sapiens) (UniProt P14416); experiment: Displacement of [3H]-sp iperone from dopamine D2 receptor (unknown origin) at 1 uM
Homo sapiens [13] = organism: Homo sapiens; experiment: Displacement of [3H]-sp iperone from dopamine D4.2 receptor (unknown origin) at 1 uM
[14] = target: Endothelin-1 receptor (Homo sapiens) (UniProt P25101); experiment: Displacement of [125I]-endothelin-1 from endothelin ETA receptor (unknown origin) at 1 uM
[15] = target: Endothelin receptor type B (Homo sapiens) (UniProt P24530); experiment: Displacement of [125I]-endothelin-1 from endothelin ETB receptor (unknown origin) at 1 uM
[16] = target: Epidermal growth factor receptor (Homo sapiens) (UniProt P00533); experiment: Displacement of [125I]-EGF from EGF receptor (unknown origin) at 1 uM
Homo sapiens [17] = organism: Homo sapiens; experiment: Displacement of [3H]-muscimol from […] GABAA receptor (unknown origin) at 1 uM
[18] = target: Glucocorticoid receptor (Homo sapiens) (UniProt P04150); experiment: Displacement of [3H]-dexamethasone from glucocorticoid receptor (unknown origin) at 1 uM
Homo sapiens [19] = organism: Homo sapiens; experiment: Displacement of [3H]-CGP-39653 from glutamate […] receptor (unknown origin) at 1 uM
[20] = target: T2, Glutamate [NMDA] receptor (Homo sapiens) (UniProt Q05586+Q12879+Q13224+O15399+O60391+Q14957+Q8TCU5); experiment: Displacement of [3H]-MDL-105519 from glutamate NMDA receptor glycine binding site (unknown origin) at 1 uM
[21] = target: T2, Glutamate [NMDA] receptor (Homo sapiens); experiment: Displacement of [3H]-TCP from glutamate NMDA receptor phencyclidine binding site (unknown origin) at 1 uM
Histamine H2 receptor [22] = target: T3, Histamine H2 receptor (Homo sapiens, UniProt P25021); experiment: Displacement of [125I]-aminopotentidine receptor from histamine H2 receptor (unknown origin) at 1 uM
[23] = target: Histamine H3 receptor (Homo sapiens) (UniProt Q9Y5N1); experiment: Displacement of [3H]-R(-)-alpha-methylhistamine from histamine H3 receptor (unknown origin) at 1 uM
Homo sapiens [24] = organism: Homo sapiens; experiment: Displacement of [3H]-Idazoxan from imidazoline I2 receptor (unknown origin) at 1 uM
[25] = target: Melanocortin receptor 3 (Homo sapiens) (UniProt P41968); experiment: Displacement of [125I]-NDP-alpha-MSH from melanocortin MC3 receptor (unknown origin) at 1 uM
[26] = target: Muscarinic acetylcholine receptor M1 (Homo sapiens) (UniProt P11229); experiment: Displacement of [3H]-N-methylscopolamine from muscarinic M1 receptor (unknown origin) at 1 uM
[27] = target: Muscarinic acetylcholine receptor M2 (Homo sapiens) (UniProt P08172); experiment: Displacement of [3H]-N-methylscopolamine from muscarinic M2 receptor (unknown origin) at 1 uM
[28] = target: Neuropeptide Y receptor type 1 (Homo sapiens) (UniProt P25929); experiment: Displacement of [125I]-Peptide YY from neuropeptide Y Y1 receptor (unknown origin) at 1 uM
[29] = target: Neuropeptide Y receptor type 2 (Homo sapiens) (UniProt P49146); experiment: Displacement of [125I]-Peptide YY from neuropeptide Y Y2 receptor (unknown origin) at 1 uM
Homo sapiens [30] = organism: Homo sapiens; experiment: Displacement of [125I]-epibatidine from nicotinic acetylcholine receptor (unknown origin) at 1 uM
[31] = target: Delta-type opioid receptor (Homo sapiens) (UniProt P41143); experiment: Displacement of [3H]-naltrindole from delta opioid receptor (unknown origin) at 1 uM
Homo sapiens [32] = organism: Homo sapiens; experiment: Displacement of [35S]-ATP-alpha-S from purinergic P2y receptor (unknown origin) at 1 uM
Mus musculus [33] = experiment: Toxicity in mouse assessed as increase in abdominal tone at 100 mg/kg, ip by Irwin test; format: organism-based; conditions: in vivo
Mus musculus [34] = experiment: Toxicity in mouse assessed as writhing at 100 mg/kg, ip by Irwin test; format: organism-based; conditions: in vivo
Mus musculus [35] = experiment: Toxicity in mouse assessed as diarrhea at 30 mg/kg, ip measured for 60 mins by Irwin test; format: organism-based; conditions: in vivo, 1 h
Mus musculus [36] = experiment: Cognition enhancing effect in mouse assessed as reversal of scopolamine-induced amnesia at 30 mg/kg, ip; format: functional, organism-based
Rattus norvegicus = experiment: Analgesic activity in rat assessed as inhibition of formalin-induced pain by measuring time spent licking injected paw in late phase (10 to 35 min) administered at 10 mg/kg by two-phase analgesic formalin assay; format: functional, organism-based
Histamine H2 receptor [37] = target: T3, Histamine H2 receptor; experiment: Displacement of [125I]-aminopotentidine receptor from histamine H2 receptor (unknown origin)

T3 sequence (P25021 whole entry): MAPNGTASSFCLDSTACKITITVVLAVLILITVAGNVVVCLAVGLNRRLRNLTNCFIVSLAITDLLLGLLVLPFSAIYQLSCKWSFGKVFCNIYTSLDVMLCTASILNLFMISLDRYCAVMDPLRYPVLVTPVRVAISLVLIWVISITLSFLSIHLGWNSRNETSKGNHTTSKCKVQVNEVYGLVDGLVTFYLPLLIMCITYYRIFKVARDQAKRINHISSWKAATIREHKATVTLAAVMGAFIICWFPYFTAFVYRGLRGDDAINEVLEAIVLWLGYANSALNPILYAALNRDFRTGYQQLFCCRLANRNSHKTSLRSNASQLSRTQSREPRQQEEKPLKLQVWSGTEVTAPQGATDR
Neuromedin-B receptor (Homo sapiens), sequence (P28336 whole entry, looked up): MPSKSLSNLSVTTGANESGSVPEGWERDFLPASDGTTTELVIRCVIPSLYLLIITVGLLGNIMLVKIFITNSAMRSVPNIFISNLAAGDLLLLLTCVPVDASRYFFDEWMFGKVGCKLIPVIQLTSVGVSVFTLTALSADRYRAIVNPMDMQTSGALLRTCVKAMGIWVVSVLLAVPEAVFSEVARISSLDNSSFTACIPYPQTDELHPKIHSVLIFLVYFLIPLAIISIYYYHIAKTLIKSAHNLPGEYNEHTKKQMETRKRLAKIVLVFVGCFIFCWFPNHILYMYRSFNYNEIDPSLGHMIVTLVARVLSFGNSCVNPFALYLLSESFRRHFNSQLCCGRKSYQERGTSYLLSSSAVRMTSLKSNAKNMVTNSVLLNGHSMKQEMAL
Endothelin receptor type B (Homo sapiens), sequence (P24530 whole entry): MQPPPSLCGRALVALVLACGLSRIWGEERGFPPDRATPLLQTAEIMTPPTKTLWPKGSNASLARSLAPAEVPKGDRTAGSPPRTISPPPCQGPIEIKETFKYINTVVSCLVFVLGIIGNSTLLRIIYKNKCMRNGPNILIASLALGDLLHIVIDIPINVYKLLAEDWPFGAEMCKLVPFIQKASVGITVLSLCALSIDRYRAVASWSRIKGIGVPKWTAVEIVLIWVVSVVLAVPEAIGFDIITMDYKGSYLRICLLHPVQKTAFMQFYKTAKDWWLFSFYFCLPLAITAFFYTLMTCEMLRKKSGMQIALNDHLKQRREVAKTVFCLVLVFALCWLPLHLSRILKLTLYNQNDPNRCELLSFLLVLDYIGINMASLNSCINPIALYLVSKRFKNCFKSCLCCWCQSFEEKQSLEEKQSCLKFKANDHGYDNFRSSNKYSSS
CYP2C19, sequence (P33261 whole entry): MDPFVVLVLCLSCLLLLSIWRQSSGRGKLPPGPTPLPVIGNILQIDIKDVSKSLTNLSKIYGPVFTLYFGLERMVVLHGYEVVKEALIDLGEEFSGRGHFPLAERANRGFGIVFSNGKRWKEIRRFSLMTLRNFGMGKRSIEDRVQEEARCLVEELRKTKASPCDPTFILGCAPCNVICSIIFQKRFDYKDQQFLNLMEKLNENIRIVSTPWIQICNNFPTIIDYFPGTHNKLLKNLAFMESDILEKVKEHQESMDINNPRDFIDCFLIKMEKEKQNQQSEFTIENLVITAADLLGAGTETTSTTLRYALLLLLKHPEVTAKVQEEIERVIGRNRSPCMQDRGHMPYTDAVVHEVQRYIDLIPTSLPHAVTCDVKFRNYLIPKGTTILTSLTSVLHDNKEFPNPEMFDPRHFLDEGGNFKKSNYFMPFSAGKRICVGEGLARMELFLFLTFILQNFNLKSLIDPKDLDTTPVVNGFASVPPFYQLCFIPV
Muscarinic acetylcholine receptor M2 (Homo sapiens), sequence (P08172 whole entry): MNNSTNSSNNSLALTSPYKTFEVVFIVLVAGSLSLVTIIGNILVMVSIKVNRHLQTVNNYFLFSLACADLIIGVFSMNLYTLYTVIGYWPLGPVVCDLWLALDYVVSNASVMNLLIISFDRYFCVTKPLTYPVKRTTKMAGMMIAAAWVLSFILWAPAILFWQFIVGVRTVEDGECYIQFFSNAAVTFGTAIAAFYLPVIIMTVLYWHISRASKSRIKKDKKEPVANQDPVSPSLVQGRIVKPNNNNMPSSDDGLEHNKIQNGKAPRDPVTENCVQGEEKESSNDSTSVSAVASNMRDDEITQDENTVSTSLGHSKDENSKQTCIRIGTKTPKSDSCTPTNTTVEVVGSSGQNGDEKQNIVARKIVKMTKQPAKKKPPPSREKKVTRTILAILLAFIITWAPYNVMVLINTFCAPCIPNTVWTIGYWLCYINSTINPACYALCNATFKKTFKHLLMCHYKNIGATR
D(2) dopamine receptor (Homo sapiens), sequence (P14416 whole entry): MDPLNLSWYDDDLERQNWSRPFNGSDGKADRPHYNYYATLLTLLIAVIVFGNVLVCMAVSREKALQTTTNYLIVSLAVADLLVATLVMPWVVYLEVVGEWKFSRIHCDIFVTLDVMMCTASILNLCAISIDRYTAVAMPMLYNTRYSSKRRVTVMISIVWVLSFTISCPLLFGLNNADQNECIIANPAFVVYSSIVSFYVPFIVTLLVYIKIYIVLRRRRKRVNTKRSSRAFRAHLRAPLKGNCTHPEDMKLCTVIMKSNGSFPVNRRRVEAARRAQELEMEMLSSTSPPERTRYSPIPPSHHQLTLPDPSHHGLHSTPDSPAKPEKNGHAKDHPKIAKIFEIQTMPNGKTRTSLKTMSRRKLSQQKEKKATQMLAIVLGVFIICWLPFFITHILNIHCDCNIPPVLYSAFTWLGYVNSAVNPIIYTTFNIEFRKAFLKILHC
Endothelin-1 receptor (Homo sapiens), sequence (P25101 whole entry): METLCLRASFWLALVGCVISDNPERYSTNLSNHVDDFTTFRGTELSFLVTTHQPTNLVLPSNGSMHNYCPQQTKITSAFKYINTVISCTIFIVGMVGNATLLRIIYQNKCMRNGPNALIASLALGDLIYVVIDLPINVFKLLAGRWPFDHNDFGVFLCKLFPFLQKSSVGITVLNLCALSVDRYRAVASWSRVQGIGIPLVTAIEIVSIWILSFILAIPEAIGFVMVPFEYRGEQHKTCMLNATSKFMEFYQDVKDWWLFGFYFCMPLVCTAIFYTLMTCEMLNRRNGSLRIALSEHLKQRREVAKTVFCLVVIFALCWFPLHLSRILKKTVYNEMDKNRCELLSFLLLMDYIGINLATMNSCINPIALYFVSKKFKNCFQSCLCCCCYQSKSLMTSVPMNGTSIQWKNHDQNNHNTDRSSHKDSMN
Histamine H3 receptor (Homo sapiens), sequence (Q9Y5N1 whole entry): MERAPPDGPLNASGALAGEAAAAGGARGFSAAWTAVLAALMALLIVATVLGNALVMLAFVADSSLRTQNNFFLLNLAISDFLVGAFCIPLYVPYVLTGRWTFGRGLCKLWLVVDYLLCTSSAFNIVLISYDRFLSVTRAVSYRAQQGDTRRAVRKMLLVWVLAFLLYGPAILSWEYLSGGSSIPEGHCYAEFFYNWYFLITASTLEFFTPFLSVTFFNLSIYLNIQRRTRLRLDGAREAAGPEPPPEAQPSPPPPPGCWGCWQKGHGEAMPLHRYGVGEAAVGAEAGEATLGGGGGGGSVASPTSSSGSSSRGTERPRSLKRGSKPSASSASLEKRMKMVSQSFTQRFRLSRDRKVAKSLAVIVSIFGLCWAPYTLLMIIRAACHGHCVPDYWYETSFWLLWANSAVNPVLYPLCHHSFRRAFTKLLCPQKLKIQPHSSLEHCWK
Muscarinic acetylcholine receptor M1 (Homo sapiens), sequence (P11229 whole entry): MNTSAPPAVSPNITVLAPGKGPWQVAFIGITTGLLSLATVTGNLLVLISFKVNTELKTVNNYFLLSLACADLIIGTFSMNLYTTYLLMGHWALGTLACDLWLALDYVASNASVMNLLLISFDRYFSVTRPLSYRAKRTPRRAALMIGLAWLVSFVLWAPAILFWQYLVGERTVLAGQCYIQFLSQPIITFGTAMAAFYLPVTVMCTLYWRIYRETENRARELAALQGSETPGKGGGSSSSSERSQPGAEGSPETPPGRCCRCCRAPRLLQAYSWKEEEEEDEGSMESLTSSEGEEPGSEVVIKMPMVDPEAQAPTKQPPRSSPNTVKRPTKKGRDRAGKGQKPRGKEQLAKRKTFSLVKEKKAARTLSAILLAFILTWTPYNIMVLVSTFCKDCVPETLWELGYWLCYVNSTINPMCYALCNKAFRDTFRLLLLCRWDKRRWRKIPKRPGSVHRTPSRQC
Melanocortin receptor 3 (Homo sapiens), sequence (P41968 whole entry): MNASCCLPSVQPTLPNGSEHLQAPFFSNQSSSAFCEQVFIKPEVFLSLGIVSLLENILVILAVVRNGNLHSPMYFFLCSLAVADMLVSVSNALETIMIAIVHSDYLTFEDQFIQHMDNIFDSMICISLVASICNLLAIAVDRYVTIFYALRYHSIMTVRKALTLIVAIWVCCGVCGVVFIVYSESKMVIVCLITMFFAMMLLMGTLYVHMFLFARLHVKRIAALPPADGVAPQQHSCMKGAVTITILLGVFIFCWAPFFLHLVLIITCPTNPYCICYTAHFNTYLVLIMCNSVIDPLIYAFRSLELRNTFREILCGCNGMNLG
Neuropeptide Y receptor type 1 (Homo sapiens), sequence (P25929 whole entry): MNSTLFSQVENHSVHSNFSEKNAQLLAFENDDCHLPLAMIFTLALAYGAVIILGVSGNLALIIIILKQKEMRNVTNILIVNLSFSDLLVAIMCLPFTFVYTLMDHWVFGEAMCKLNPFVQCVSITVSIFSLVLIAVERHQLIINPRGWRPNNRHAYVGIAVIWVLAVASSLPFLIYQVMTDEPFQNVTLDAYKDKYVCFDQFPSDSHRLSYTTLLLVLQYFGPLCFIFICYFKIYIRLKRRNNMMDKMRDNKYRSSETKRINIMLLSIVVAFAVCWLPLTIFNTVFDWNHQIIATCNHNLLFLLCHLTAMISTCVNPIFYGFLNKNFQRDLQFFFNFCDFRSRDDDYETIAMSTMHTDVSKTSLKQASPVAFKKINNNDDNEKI
Sigma non-opioid intracellular receptor 1, sequence (Q60492 whole entry): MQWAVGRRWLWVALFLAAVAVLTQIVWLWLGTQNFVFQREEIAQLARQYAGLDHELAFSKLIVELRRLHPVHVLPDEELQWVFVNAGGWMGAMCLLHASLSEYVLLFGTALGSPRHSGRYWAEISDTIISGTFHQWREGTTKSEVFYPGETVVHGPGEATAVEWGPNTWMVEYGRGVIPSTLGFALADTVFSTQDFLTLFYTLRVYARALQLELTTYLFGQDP

inhibition [1]: inactive | Ki [2]: 0.00086 µM | Ki [3]: 0.046 µM | IC50 [4]: > 1 µM | remaining at 5 min [5]: < 50% | inhibition at 1 µM (CYP2C19): 38% | PB (Albumin): 1.6% | inhibition [6]: inactive | inhibition [7]: inactive | inhibition [8]: inactive | inhibition [9]: inactive | inhibition [10]: inactive | inhibition [11]: inactive | inhibition [12]: inactive | inhibition (Homo sapiens [13]): inactive | inhibition [14]: inactive | inhibition [15]: inactive | inhibition [16]: inactive | inhibition (Homo sapiens [17]): inactive | inhibition [18]: inactive | inhibition (Homo sapiens [19]): inactive | inhibition [20]: inactive | inhibition [21]: inactive | inhibition (Histamine H2 receptor [22]): 50% | inhibition [23]: inactive | inhibition (Homo sapiens [24]): inactive | inhibition [25]: inactive | inhibition [26]: inactive | inhibition [27]: inactive | inhibition [28]: inactive | inhibition [29]: inactive | inhibition (Homo sapiens [30]): inactive | inhibition [31]: inactive | inhibition (Homo sapiens [32]): inactive | IC50 (Histamine H2 receptor [37]): 1 µM
Compound: COc1ccc(CN2CCCN(Cc3ccccc3)[C@@H](C)C2)cc1
Activity (Mus musculus [33]): Toxic | Activity (Mus musculus [34]): Toxic | Activity (Mus musculus [35]): Toxic | Activity (Mus musculus [36]): Active | Activity (Rattus norvegicus): Active
